Results: patent US5273985A, “Glycerin derivative and its pharmacological use” (Eisai Co., Ltd., priority 1988, dated 1993)
pIC50: −log10 of the molar value.

Legend:
[1] = test system: platelet agglutination caused by PAF; experiment: Inhibition of platelet agglutination caused by human PAF (platelet-rich plasma, optical method of Born); format: cell-based; details: PAF at minimum concentration for maximum agglutination, read-out: Agglutination inhibiting activity IC50
Procedure: Effect on the Agglutination Caused by Human PAF
One part by volume of a 3.8% sodium citrate solution was added to 9 parts by volume of blood sampled from the forearm of a healthy adult to whom had been administered no medicine for at least two weeks. A platelet-rich plasma (PRP) was prepared by centrifugation. The inhibition of the platelet agglutination was determined by an optical method of Born et al. with a Hematolaser II® (a platelet agglutination meter of Niko Bioscience Co.). PAF was dissolved in Tyrode solution [Ca^++ (+)] to form a solution having the minimum concentration for causing the maximum agglutination. The test compound was dissolved in a physiological saline.
The agglutination inhibiting activity of the test compound was determined from the rate of inhibition of the maximum light transmittance (maximum agglutination rate) caused by PAF in control PRP. IC50 was determined from the inhibition curve.
The numeral in the column of the Test compound in Table 1 refers to the Example number of the compound.

Human PAF Receptor = target: T1, Human PAF Receptor (Homo sapiens, UniProt P25105); experiment: Human PAF receptor binding assay (3H-PAF, platelets); details: 3H-PAF 0.6 to 1 nM, 37° C., read-out: PAF receptor antagonism IC50
T1 construct: The platelets were sampled from healthy males by an ordinary method; endogenous in cells; host or cells: human platelets from healthy males (intact platelet suspension)
T1 sequence (P25105 whole entry): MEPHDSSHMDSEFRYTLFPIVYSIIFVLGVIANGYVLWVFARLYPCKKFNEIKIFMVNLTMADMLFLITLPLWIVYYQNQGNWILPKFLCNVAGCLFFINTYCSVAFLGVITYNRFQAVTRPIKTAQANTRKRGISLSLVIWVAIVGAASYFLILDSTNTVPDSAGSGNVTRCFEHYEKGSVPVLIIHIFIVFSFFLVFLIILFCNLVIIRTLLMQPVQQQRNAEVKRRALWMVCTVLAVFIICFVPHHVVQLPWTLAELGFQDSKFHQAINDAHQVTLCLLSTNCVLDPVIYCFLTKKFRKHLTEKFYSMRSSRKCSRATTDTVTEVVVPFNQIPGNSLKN
Procedure: Human PAF Receptor Binding Assay
The platelets were sampled from healthy males by an ordinary method and suspended in a binding buffer [10 mM phosphate-buffered saline (pH 7.0) containing 0.1 w/v % of BSA and 0.9 mM of CaCl2) to form a suspension having a concentration of 10^8 /460 μl. 20 μl of a solution of the test compound in the binding buffer was placed in a polypropylene tube and then 460 μl of the platelet suspension was added thereto. The mixture was subjected to a vortex treatment and then incubated at 37° C. for 6 min. 20 μl of a solution of ^3 H-PAF in the binding buffer (final ^3 H-PAF concentration: 0.6 to 1 nM) was added thereto and the mixture was incubated for 6 min. 3 ml of a washing solution (saline containing 0.1 w/v % of BSA) cooled with ice was added thereto to terminate the reaction. The reaction mixture was filtered by suction through a glass filter (Whatman GF/C). The glass filter was dried and the radioactivity thereof was determined with a liquid scintillation counter.
The inhibition % was calculated according to the following equation and IC50 so was determined by interpolation from the figure. [formula] wherein: total binding: dpm obtained when the concentration of the medicine or PAF is 0,
non-specific binding: dpm obtained when 10^-5 M of cold PAF was added.

[2] = test system: blood pressure drop induced by PAF; experiment: Action on the blood pressure drop induced by PAF; format: in vivo, F344 rats; details: Rattus norvegicus, iv, 0.05 h; 0.01 mg/kg, i.v., three minutes after 0.5 μg/kg PAF; ratio of blood pressure rise to drop; read-out: Recovery rate
Procedure: Action on the Blood Pressure Drop Induced by […]
Cannulae were inserted into the carotid and the jugular of each of F344 rats anesthetized with Pento (50 mg/kg, i. p.). The blood pressure was determined at the carotid and 0.5 ml/kg of PAF or the test compound was given through the jugular. Three minutes after the injection of 0.5 μg/kg of PAF, the test compound was given and the antagonism thereof was evaluated.
The recovery rate shown in Table 4 is the ratio of the blood pressure rise by the test compound to the drop thereof.

[3] = Determination of stability in aqueous solution; format: physicochemical; details: pH 7.4, 37° C., 0.5M sodium phosphate; read-out: Half-value period of disappearance due to hydrolysis (t1/2) (converted)
Procedure: Determination of Stability in Aqueous Solution
These compounds were unstable in a neutral or alkaline aqueous solution mainly due to the hydrolysis reaction of the N-acetyl or N-benzoyl group. The relationships between the pH and decomposition rate of several compounds were examined to find that they have the same pattern. The decomposition rate constant under conditions (pH 7.4, 37° C.) where they were relatively easily decomposed was determined and the stabilities of the compounds were compared with one another.
9 parts by volume of a buffer solution (0.5M sodium phosphate, pH 7.4) was added to 1 part by volume of an aqueous sample solution (1 mg/ml) and the mixture was kept at 37° C. The sampling was conducted at appropriate time intervals and the residual rate of an unreacted compound was determined by reversed phase high-performance liquid chromatography. Since the decomposition rate of most of the compounds can be approximately represented by the first-order decomposition rate equation, the decomposition rate constant was determined by the least squares method.

lethal activity of PAF = experiment: Preventive effect against the lethal activity of PAF; format: in vivo, ICR male mice; details: 15 minutes before PAF i.v.; for number of dead mice / number of mice (Survival rate): after one hour; for Survival rate: survival after one hour
Procedure: Preventive Effect Against the Lethal Activity of PAF:
A physiological saline or the test compound was given to ICR male mice weighing around 30 g by intravenous injection. After 15 minutes, 100 wg/kg of PAF was given to them by intravenous injection. Life and death of them were examined after one hour and the survival rate was determined.
The survival rate is given by percentage. The denominator of the fraction
is the number of the mice and the numerator is the number of the dead

Compound	pIC50 [1]	pIC50 (Human PAF Receptor)	inhibition in vivo at 0.01 mg/kg [2] [%]	half-life [3] [h]	number of dead mice / number of mice (Survival rate) (lethal activity of PAF; 0.03 mg/kg i.v.)	Survival rate (lethal activity of PAF; 0.03 mg/kg i.v.) [%]	number of dead mice / number of mice (Survival rate) (lethal activity of PAF; 0.1 mg/kg i.v.)	Survival rate (lethal activity of PAF; 0.1 mg/kg i.v.) [%]	number of dead mice / number of mice (Survival rate) (lethal activity of PAF; 0.3 mg/kg i.v.)	Survival rate (lethal activity of PAF; 0.3 mg/kg i.v.) [%]
CCCCCCCCCCCCCCCCCCOc1c(OC)cc(COCC(COC(=O)N(Cc2cccc[n+]2CC)C(=O)c2ccccc2OC)OC)cc1OC (stereo not shown) [Example 18, 1-ethyl-2-(((N-((3,5-dimethoxy-4-octadecyloxy)benzyloxy-2-methoxypropyloxy))carbonyl-N-(2-methoxy)benzoyl))) aminomethyl pyridinium chloride]	6.18	9.15	74.1	37.7	–	–	–	–	–	–
CCCCCCCCCCCCCCCCCCNC(=O)OC1CCN(C(=O)OCC(COC(=O)N(Cc2cccc[n+]2CC)C(=O)c2ccccc2OC)OC)CC1 (stereo not shown) [Example 15, 1-Ethyl-2-[N-(2-methoxy)benzoyl-N-{2-methoxy-3-(4-octadecylcarbamoyloxy)piperidinocarbonyloxypropyloxyl}carbonyl]aminomethylpyridinium chloride]	7.10	9.72	94.6	24.4	2/7	71.4	3/7	57.1	0/7	100
CCCCCCCCCCCCCCCCCCOC(=O)N1CCN(C(=O)OCC(COC(=O)N(Cc2cccc[n+]2CC)C(=O)c2ccccc2OC)OC)CC1 (stereo not shown) [Example 6, 1-Ethyl-2-[N-(2-methoxy)benzoyl-N-{2-methoxy-3-(4-octadecyloxycarbonyl)piperazylcarbonyloxy}propoxycarbonyl]aminomethylpyridinium chloride]	6.80	9.72	88.5	28.2	–	–	–	–	–	–
CCCCCCCCCCCCCCCCCCNS(=O)(=O)c1ccc(CNC(=O)OCC(COC(=O)N(Cc2cccc[n+]2CC)C(=O)c2ccccc2OC)OC)cc1 (stereo not shown) [Example 13, 1-Ethyl-2-[N-(2-methoxy)benzoyl-N-{2-methoxy-3-(4-octadecylsulfamoyl)benzylcarbamoyloxypropyloxy}carbonyl]aminomethylpyridinium chloride]	7.14	9.60	89.7	21.5	3/7	57.1	0/7	100	0/7	100
